According to patent US20260138978A1, “POSITIVE ALLOSTERIC MODULATORS OF THE MUSCARINIC ACETYLCHOLINE RECEPTOR M1” (Vanderbilt University, priority 2022, published 2026):

Tests used:
human mAChRM1 [1] = target: T1, human mAChRM1 (Homo sapiens, UniProt P11229); assay: mAChR M1 cell-based functional assay (calcium mobilization), positive allosteric modulator activity: increase in the EC20 acetylcholine response; details: for Emax: PAM mode; for EC50: increase in the EC20 acetylcholine response, read-out: PAM Activity Human M1 EC50
T1 construct: host or cells: CHO-K1
T1 sequence (P11229 1-460): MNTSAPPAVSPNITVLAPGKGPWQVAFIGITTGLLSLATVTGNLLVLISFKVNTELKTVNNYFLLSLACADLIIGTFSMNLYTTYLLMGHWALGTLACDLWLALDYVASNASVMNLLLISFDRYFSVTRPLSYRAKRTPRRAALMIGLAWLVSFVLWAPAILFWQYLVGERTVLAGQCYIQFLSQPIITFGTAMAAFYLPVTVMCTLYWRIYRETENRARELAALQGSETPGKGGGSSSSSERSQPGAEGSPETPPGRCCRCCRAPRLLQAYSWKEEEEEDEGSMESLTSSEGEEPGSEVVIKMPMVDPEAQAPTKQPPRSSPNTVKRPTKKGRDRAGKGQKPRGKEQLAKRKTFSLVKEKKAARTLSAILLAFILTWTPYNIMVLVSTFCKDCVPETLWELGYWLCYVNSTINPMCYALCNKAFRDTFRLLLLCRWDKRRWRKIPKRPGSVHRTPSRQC
Procedure, shortened: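 Potentiation is scored as the rise in an EC20 acetylcholine-evoked calcium signal across 11-point (1:3) compound series, fitted with a four-parameter logistic equation to give EC50 and Emax. Read-out is Fluo-4 fluorescence ratio in hM1-transfected CHO-K1 cells, measured kinetically on FDSS.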

human mAChRM1 [2] = target: T1, human mAChRM1; assay: mAChR M1 cell-based functional assay (calcium mobilization), agonist activity upon compound addition, Emax relative to acetylcholine maximum; details: for Agonist Activity Human M1 EC50 / EC50: calcium mobilization upon compound addition; for Emax: relative to the maximum for acetylcholine
Procedure, shortened: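 Emax is given as a percentage of the maximal acetylcholine response, from four-parameter curves of compound-evoked calcium mobilization. Human M1-transfected CHO-K1 cells carried Fluo-4 dye, and compound (11 concentrations, 1:3 steps) was applied at 4 s of a 300 s kinetic fluorescence recording.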

Emax (human mAChRM1 [1]) [%]	EC50 (human mAChRM1 [1]) [nM]	Agonist Activity Human M1 EC50 (human mAChRM1 [2])	EC50 (human mAChRM1 [2]) [nM]	Emax (human mAChRM1 [2]) [%]	SMILES
66	1030	inactive	–	–	CC(C)(O)c1ccc(-c2cc(F)c(CN3Cc4ncccc4C3=O)c(Cl)c2)cc1 [Compound 45, 6-((3-chloro-5-fluoro-4′-(2-hydroxypropan-2-yl)-[1,1′-biphenyl]-4-yl)methyl)-6,7-dihydro-5H-pyrrolo[3,4-b]pyridin-5-one]
86	222	inactive	–	–	Cn1cc2c(-c3cc(F)c(CN4Cc5ncccc5C4=O)c(F)c3)ccc(C3(O)CCC(C#N)CC3)c2n1 (centres unmarked) [Compound 101, 4-(4-(3,5-difluoro-4-((5-oxo-5,7-dihydro-6H-pyrrolo[3,4-b]pyridin-6-yl)methyl)phenyl)-2-methyl-2H-indazol-7-yl)-4-hydroxycyclohexane-1-carbonitrile]
75	5100	inactive	–	–	CC(C)c1cnc2c(c1)C(=O)N(Cc1c(F)cc(-c3ccc(C(C)(C)O)c4nn(C)cc34)cc1F)C2 [Compound 177, 6-(2,6-difluoro-4-(7-(2-hydroxypropan-2-yl)-2-methyl-2H-indazol-4-yl)benzyl)-3-isopropyl-6,7-dihydro-5H-pyrrolo[3,4-b]pyridin-5-one]
59	4680	inactive	–	–	Cn1cc2c(-c3cc(F)c(CN4Cc5c(F)cccc5C4=O)c(F)c3)ccc(C(C)(C)O)c2n1 [Compound 106, 2-(2,6-difluoro-4-(7-(2-hydroxypropan-2-yl)-2-methyl-2H-indazol-4-yl)benzyl)-4-fluoroisoindolin-1-one]
64	3210	inactive	–	–	CC(C)(O)c1cccc(-c2cc(F)c(CN3Cc4ncccc4C3=O)c(F)c2)c1 [Compound 43, 6-((3,5-difluoro-3′-(2-hydroxypropan-2-yl)-[1,1′-biphenyl]-4-yl)methyl)-6,7-dihydro-5H-pyrrolo[3,4-b]pyridin-5-one]
92	825	inactive	–	–	Cn1cc2c(-c3ccc(CN4Cc5cccnc5C4=O)cc3)ccc(C(C)(C)O)c2n1 [Compound 131, 6-(4-(7-(2-hydroxypropan-2-yl)-2-methyl-2H-indazol-4-yl)benzyl)-5,6-dihydro-7H-pyrrolo[3,4-b]pyridin-7-one]
76	1210	inactive	–	–	Cn1ncc2c(-c3cc(F)c(CN4Cc5ncccc5C4=O)c(F)c3)ccc(C(C)(C)O)c21 [Compound 79, 6-(2,6-difluoro-4-(7-(2-hydroxypropan-2-yl)-1-methyl-1H-indazol-4-yl)benzyl)-6,7-dihydro-5H-pyrrolo[3,4-b]pyridin-5-one]
77	≥ 10000	inactive	–	–	CN(C)c1cc(-c2ccc(C(C)(C)O)c3nn(C)cc23)cc(F)c1CN1Cc2cccnc2C1=O [Compound 125, 6-(2-(dimethylamino)-6-fluoro-4-(7-(2-hydroxypropan-2-yl)-2-methyl-2H-indazol-4-yl)benzyl)-5,6-dihydro-7H-pyrrolo[3,4-b]pyridin-7-one]
81	583	inactive	–	–	Cn1cc2c(-c3cc(F)c(CN4Cc5ncccc5C4=O)c(N4CCC4)c3)ccc(C(C)(C)O)c2n1 [Compound 78, 6-(2-(azetidin-1-yl)-6-fluoro-4-(7-(2-hydroxypropan-2-yl)-2-methyl-2H-indazol-4-yl)benzyl)-6,7-dihydro-5H-pyrrolo[3,4-b]pyridin-5-one]
70	1800	inactive	–	–	CC(C)(O)c1cc2cc(-c3cc(F)c(CN4Cc5ncccc5C4=O)c(F)c3)ccn2n1 [Compound 108, 6-(2,6-difluoro-4-(2-(2-hydroxypropan-2-yl)pyrazolo[1,5-a]pyridin-5-yl)benzyl)-6,7-dihydro-5H-pyrrolo[3,4-b]pyridin-5-one]
67	422	–	≥ 10000	12	Cn1cc2cc(-c3cc(F)c(CN4Cc5ncccc5C4=O)c(Cl)c3)cc(C(C)(C)O)c2n1 [Compound 41, 6-(2-chloro-6-fluoro-4-(7-(2-hydroxypropan-2-yl)-2-methyl-2H-indazol-5-yl)benzyl)-6,7-dihydro-5H-pyrrolo[3,4-b]pyridin-5-one]
83	373	inactive	–	–	Cn1cc2c(-c3cc(F)c(CN4Cc5ncccc5C4=O)c(F)c3)ccc(C(C)(O)C3CC3)c2n1 (centres unmarked) [Compound 80, 6-(4-(7-(1-cyclopropyl-1-hydroxyethyl)-2-methyl-2H-indazol-4-yl)-2,6-difluorobenzyl)-6,7-dihydro-5H-pyrrolo[3,4-b]pyridin-5-one]
83	136	inactive	–	–	[2H]C([2H])([2H])C(O)(c1ccc(-c2cc(F)c(CN3Cc4cccc(F)c4C3=O)c(F)c2)c2cn(C)nc12)C([2H])([2H])[2H] [Compound 156, 2-(2,6-difluoro-4-(7-(2-hydroxypropan-2-yl-1,1,1,3,3,3-d)-2-methyl-2H-indazol-4-yl)benzyl)-7-fluoroisoindolin-1-one]
76	591	inactive	–	–	Cn1cc2cc(-c3cc(F)c(CN4Cc5cccc(F)c5C4=O)cc3F)cc(C(C)(C)O)c2n1 [Compound 169, 2-(2,5-difluoro-4-(7-(2-hydroxypropan-2-yl)-2-methyl-2H-indazol-5-yl)benzyl)-7-fluoroisoindolin-1-one]
67	281	–	≥ 10000	17	Cn1cc2c(-c3cc(F)c(CN4Cc5nccnc5C4=O)c(F)c3)ccc(C(C)(C)O)c2n1 [Compound 138, 6-(2,6-Difluoro-4-(7-(2-hydroxypropan-2-yl)-2-methyl-2H-indazol-4-yl)benzyl)-6,7-dihydro-5H-pyrrolo[3,4-b]pyrazin-5-one]
88	251	–	7490	12	Cn1cc2c(-c3ccc(CN4Cc5cccnc5C4=O)c(F)c3)ccc(C(C)(C)O)c2n1 [Compound 130, 6-(2-fluoro-4-(7-(2-hydroxypropan-2-yl)-2-methyl-2H-indazol-4-yl)benzyl)-5,6-dihydro-7H-pyrrolo[3,4-b]pyridin-7-one]
65	120	–	≥ 10000	28	[2H]C1([2H])c2ncccc2C(=O)N1Cc1c(C)cc(-c2ccc(C(C)(C)O)c3nn(C([2H])([2H])[2H])cc23)cc1F (single isomer, unassigned) [Compound 146, 6-(2-fluoro-4-(7-(2-hydroxypropan-2-yl)-2-(methyl-d3)-2H-indazol-4-yl)-6-methylbenzyl)-6,7-dihydro-5H-pyrrolo[3,4-b]pyridin-5one-7,7-d2]
67	962	inactive	–	–	Cn1cc2cc(-c3ccc(CN4Cc5ncccc5C4=O)cc3)cc(C(C)(C)O)c2n1 [Compound 36, 6-(4-(7-(2-hydroxypropan-2-yl)-2-methyl-2H-indazol-5-yl)benzyl)-6,7-dihydro-5H-pyrrolo[3,4-b]pyridin-5-one]
63	145	–	6330	15	Cn1cc2c(-c3cc(Cl)c(CN4Cc5ncccc5C4=O)c(Cl)c3)ccc(C(C)(C)O)c2n1 [Compound 64, 6-(2,6-dichloro-4-(7-(2-hydroxypropan-2-yl)-2-methyl-2H-indazol-4-yl)benzyl)-6,7-dihydro-5H-pyrrolo[3,4-b]pyridin-5-one]
80	521	inactive	–	–	Cc1cc(-c2ccc(C(C)(C)O)c3nn(C)cc23)ccc1CN1Cc2cccc(F)c2C1=O [Compound 161, 7-fluoro-2-(4-(7-(2-hydroxypropan-2-yl)-2-methyl-2H-indazol-4-yl)-2-methylbenzyl)isoindolin-1-one]
60	6960	inactive	–	–	Cc1cc(-c2ccc(C(C)(C)O)c3ccccc23)cc(F)c1CN1Cc2ncccc2C1=O [Compound 72, 6-(2-fluoro-4-(4-(2-hydroxypropan-2-yl)naphthalen-1-yl)-6-methylbenzyl)-6,7-dihydro-5H-pyrrolo[3,4-b]pyridin-5-one]
70	5940	inactive	–	–	Cc1cc(-c2ccc(C(C)(C)O)cc2)ccc1CN1Cc2ncccc2C1=O [Compound 12, 6-((4′-(2-hydroxypropan-2-yl)-3-methyl-[1,1′-biphenyl]-4-yl)methyl)-6,7-dihydro-5H-pyrrolo[3,4-b]pyridin-5-one]
